Source: patent publication US8697694B2, “Substituted pyridine and pyrimidine derivatives and their use in treating viral infections” (priority 2008, dated 2014)

tested on: HCV replicon cells; assay: Cell-based HCV replicon assay (replicon RNA level by real time PCR, Taqman); settings: Hepatitis C virus, 72 h, HCV replicon cells, harvested day 3, replicon RNA by real time PCR; reported as range class; read-out: EC90 (μM) range
Summary of the method: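 Readout: ΔCT between NS5B replicon RNA and GAPDH by real-time RT-PCR in lysates harvested on day 3, fitted sigmoidally; EC50 at ΔCT=1, EC90 at ΔCT=3.2. Compounds tested at ten 2-fold dilutions from 25 μM to 1 μM start, 10% FBS, 0.5% DMSO.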

SMILES	EC90
CCOc1ccc2nc(-c3c(C)nc(N(C)C)nc3N[C@@H]3C[C@H](CO)[C@@H](O)[C@H]3O)sc2c1 [Example 207]	> 5 µM
CCOCCNc1nc(C)c(-c2nc3ccccc3s2)c(N[C@@H]2C[C@H](CO)[C@@H](O)[C@H]2O)n1 [Example 208]	< 0.5 µM
CC(=O)OCCNc1nc(Cl)c(-c2nc3ccccc3s2)c(N[C@@H]2C[C@H](CO)[C@@H](O)[C@H]2O)n1 [Example 209]	< 0.5 µM
Cc1nc(NCCO)nc(N[C@@H]2C[C@H](CO)[C@@H](O)[C@H]2O)c1-c1nc2ccccc2s1 [Example 210]	< 0.5 µM
CC(=O)OCCNc1nc(C)c(-c2nc3ccccc3s2)c(N[C@@H]2C[C@H](CO)[C@@H](O)[C@H]2O)n1 [Example 211]	< 0.5 µM
OCCNc1nc(Cl)c(-c2nc3ccccc3s2)c(N[C@@H]2C[C@H](CO)[C@@H](O)[C@H]2O)n1 [Example 212]	< 0.5 µM
OC[C@H]1C[C@@H](Nc2nc(NCCF)nc(Cl)c2-c2nc3ccccc3s2)[C@H](O)[C@@H]1O [Example 213]	< 0.5 µM
OC[C@H]1C[C@@H](Nc2nc(NCC(F)F)nc(Cl)c2-c2nc3ccccc3s2)[C@H](O)[C@@H]1O [Example 214]	< 0.5 µM
Cc1nc(NCC(F)F)nc(N[C@@H]2C[C@H](CO)[C@@H](O)[C@H]2O)c1-c1nc2ccccc2s1 [Example 215]	< 0.5 µM
Cc1nc(NCCF)nc(N[C@@H]2C[C@H](CO)[C@@H](O)[C@H]2O)c1-c1nc2ccccc2s1 [Example 216]	0.5 to 5 µM
OC[C@H]1C[C@@H](Nc2nc(NCCC(F)(F)F)nc(Cl)c2-c2nc3ccccc3s2)[C@H](O)[C@@H]1O [Example 217]	< 0.5 µM
Cc1nc(NCCC(F)(F)F)nc(N[C@@H]2C[C@H](CO)[C@@H](O)[C@H]2O)c1-c1nc2ccccc2s1 [Example 218]	< 0.5 µM
CC(C)OCCNc1nc(Cl)c(-c2nc3ccccc3s2)c(N[C@@H]2C[C@H](CO)[C@@H](O)[C@H]2O)n1 [Example 219]	< 0.5 µM
Cc1nc(NCCOC(C)C)nc(N[C@@H]2C[C@H](CO)[C@@H](O)[C@H]2O)c1-c1nc2ccccc2s1 [Example 220]	< 0.5 µM
COCCCNc1nc(Cl)c(-c2nc3ccccc3s2)c(N[C@@H]2C[C@H](CO)[C@@H](O)[C@H]2O)n1 [Example 222]	< 0.5 µM
COCCCNc1nc(C)c(-c2nc3ccccc3s2)c(N[C@@H]2C[C@H](CO)[C@@H](O)[C@H]2O)n1 [Example 223]	< 0.5 µM

SMILES	EC90
OC[C@H]1C[C@@H](Nc2nc(NCCCC(F)(F)F)nc(Cl)c2-c2nc3ccccc3s2)[C@H](O)[C@@H]1O [Example 224]	< 0.5 µM
Cc1nc(NCCCC(F)(F)F)nc(N[C@@H]2C[C@H](CO)[C@@H](O)[C@H]2O)c1-c1nc2ccccc2s1 [Example 225]	< 0.5 µM
CCCOCCNc1nc(Cl)c(-c2nc3ccccc3s2)c(N[C@@H]2C[C@H](CO)[C@@H](O)[C@H]2O)n1 [Example 226]	< 0.5 µM
CCCOCCNc1nc(C)c(-c2nc3ccccc3s2)c(N[C@@H]2C[C@H](CO)[C@@H](O)[C@H]2O)n1 [Example 227]	< 0.5 µM
CO[C@@H](C)CNc1nc(Cl)c(-c2nc3ccccc3s2)c(N[C@@H]2C[C@H](CO)[C@@H](O)[C@H]2O)n1 [Example 228]	< 0.5 µM
CO[C@@H](C)CNc1nc(C)c(-c2nc3ccccc3s2)c(N[C@@H]2C[C@H](CO)[C@@H](O)[C@H]2O)n1 [Example 229]	< 0.5 µM
Nc1nc(Cl)c(-c2cc3cc([N+](=O)[O-])cnc3o2)c(N[C@@H]2C[C@H](CO)[C@@H](O)[C@H]2O)n1 [Example 302]	0.5 to 5 µM
Nc1nc(Cl)c(-c2cc3c(F)cncc3o2)c(N[C@@H]2C[C@H](CO)[C@@H](O)[C@H]2O)n1 [Example 303]	0.5 to 5 µM
Cc1cncc2oc(-c3c(Cl)nc(N)nc3N[C@@H]3C[C@H](CO)[C@@H](O)[C@H]3O)cc12 [Example 304]	> 5 µM
Cc1nccc2cc(-c3c(Cl)nc(N)nc3N[C@@H]3C[C@H](CO)[C@@H](O)[C@H]3O)oc12 [Example 305]	< 0.5 µM
Cc1cc2cc(-c3c(Cl)nc(N)nc3N[C@@H]3C[C@H](CO)[C@@H](O)[C@H]3O)oc2cn1 [Example 306]	< 0.5 µM
Nc1nc(Cl)c(-c2cc3cnc(=O)[nH]c3o2)c(N[C@@H]2C[C@H](CO)[C@@H](O)[C@H]2O)n1 [Example 307]	> 5 µM
CCc1nccc2cc(-c3c(Cl)nc(N)nc3N[C@@H]3C[C@H](CO)[C@@H](O)[C@H]3O)oc12 [Example 308]	< 0.5 µM
CCc1cc2cc(-c3c(Cl)nc(N)nc3N[C@@H]3C[C@H](CO)[C@@H](O)[C@H]3O)oc2c(C)n1 [Example 309]	< 0.5 µM
COCc1cc2cc(-c3c(Cl)nc(N)nc3N[C@@H]3C[C@H](CO)[C@@H](O)[C@H]3O)oc2cn1 [Example 310]	< 0.5 µM
COCc1cc2cc(-c3c(Cl)nc(N)nc3N[C@@H]3C[C@H](CO)[C@@H](O)[C@H]3O)oc2c(C)n1 [Example 311]	< 0.5 µM

same assay, conditions: Hepatitis C virus, 72 h, HCV replicon cells, harvested on day 3, replicon RNA by real time PCR; calculated EC90 reported as range class; read-out: EC90 (μM) range

SMILES	EC90
CO[C@H](C)CNc1nc(Cl)c(-c2nc3ccccc3s2)c(N[C@@H]2C[C@H](CO)[C@@H](O)[C@H]2O)n1 [Example 230]	< 0.5 µM
CO[C@H](C)CNc1nc(C)c(-c2nc3ccccc3s2)c(N[C@@H]2C[C@H](CO)[C@@H](O)[C@H]2O)n1 [Example 231]	< 0.5 µM
OC[C@H]1C[C@@H](Nc2nc(NCc3ccccc3F)nc(Cl)c2-c2nc3ccccc3s2)[C@H](O)[C@@H]1O [Example 232]	< 0.5 µM
Cc1nc(NCc2ccccc2F)nc(N[C@@H]2C[C@H](CO)[C@@H](O)[C@H]2O)c1-c1nc2ccccc2s1 [Example 233]	< 0.5 µM
OC[C@H]1C[C@@H](Nc2nc(NCc3cccc(F)c3)nc(Cl)c2-c2nc3ccccc3s2)[C@H](O)[C@@H]1O [Example 234]	< 0.5 µM
Cc1nc(NCc2ccc(F)cc2)nc(N[C@@H]2C[C@H](CO)[C@H]3OC(C)(C)O[C@H]32)c1-c1nc2ccccc2s1 [Example 235]	< 0.5 µM
Cc1nc(NCc2ccccc2C(F)(F)F)nc(N[C@@H]2C[C@H](CO)[C@H]3OC(C)(C)O[C@H]32)c1-c1nc2ccccc2s1 [Example 236]	> 5 µM
Cc1nc(NCc2cccc(C(F)(F)F)c2)nc(N[C@@H]2C[C@H](CO)[C@H]3OC(C)(C)O[C@H]32)c1-c1nc2ccccc2s1 [Example 237]	0.5 to 5 µM
Cc1nc(NCc2ccc(F)cc2)nc(N[C@@H]2C[C@H](CO)[C@@H](O)[C@H]2O)c1-c1nc2ccccc2s1 [Example 238]	< 0.5 µM
Cc1nc(NCc2ccccc2C(F)(F)F)nc(N[C@@H]2C[C@H](CO)[C@@H](O)[C@H]2O)c1-c1nc2ccccc2s1 [Example 239]	0.5 to 5 µM
Cc1nc(NCc2cccc(C(F)(F)F)c2)nc(N[C@@H]2C[C@H](CO)[C@@H](O)[C@H]2O)c1-c1nc2ccccc2s1 [Example 240]	< 0.5 µM
Cc1nc(NCc2ccc(C(F)(F)F)cc2)nc(N[C@@H]2C[C@H](CO)[C@H]3OC(C)(C)O[C@H]32)c1-c1nc2ccccc2s1 [Example 241]	0.5 to 5 µM
Cc1nc(NCc2ccc(C(F)(F)F)cc2)nc(N[C@@H]2C[C@H](CO)[C@@H](O)[C@H]2O)c1-c1nc2ccccc2s1 [Example 242]	< 0.5 µM
Cc1nc(NCc2cccc(F)c2)nc(N[C@@H]2C[C@H](CO)[C@H]3OC(C)(C)O[C@H]32)c1-c1nc2ccccc2s1 [Example 243]	< 0.5 µM
Cc1nc(NCc2cccc(F)c2)nc(N[C@@H]2C[C@H](CO)[C@@H](O)[C@H]2O)c1-c1nc2ccccc2s1 [Example 244]	< 0.5 µM
Cc1nc(NCCN(C)C)nc(N[C@@H]2C[C@H](CO)[C@H]3OC(C)(C)O[C@H]32)c1-c1nc2ccccc2s1 [Example 245]	> 5 µM

SMILES	EC90
Cc1nc(NCCN(C)C)nc(N[C@@H]2C[C@H](CO)[C@@H](O)[C@H]2O)c1-c1nc2ccccc2s1 [Example 246]	> 5 µM
Cc1nc(NCC(F)(F)F)nc(N[C@@H]2C[C@H](CO)[C@@H](O)[C@H]2O)c1-c1nc2cc(N(C)C)ccc2s1 [Example 247]	< 0.5 µM
Cc1nc(NCCN2CCOCC2)nc(N[C@@H]2C[C@H](CO)[C@H]3OC(C)(C)O[C@H]32)c1-c1nc2ccccc2s1 [Example 248]	< 0.5 µM
Cc1nc(NCCNC(=O)NC(C)(C)C)nc(N[C@@H]2C[C@H](CO)[C@H]3OC(C)(C)O[C@H]32)c1-c1nc2ccccc2s1 [Example 249]	> 5 µM
Cc1nc(NCCNC(=O)NC(C)(C)C)nc(N[C@@H]2C[C@H](CO)[C@@H](O)[C@H]2O)c1-c1nc2ccccc2s1 [Example 250]	0.5 to 5 µM
OC[C@H]1C[C@@H](Nc2nc(NCc3ccc(F)cc3)nc(Cl)c2-c2nc3ccccc3s2)[C@H](O)[C@@H]1O [Example 251]	< 0.5 µM
Cc1nc(NCCN2CCOCC2)nc(N[C@@H]2C[C@H](CO)[C@@H](O)[C@H]2O)c1-c1nc2ccccc2s1 [Example 252]	< 0.5 µM
Cc1nc(NCCNC(=O)OCc2ccccc2)nc(N[C@@H]2C[C@H](CO)[C@H]3OC(C)(C)O[C@H]32)c1-c1nc2ccccc2s1 [Example 253]	0.5 to 5 µM
Cc1nc(NCCNC(=O)OCc2ccccc2)nc(N[C@@H]2C[C@H](CO)[C@@H](O)[C@H]2O)c1-c1nc2ccccc2s1 [Example 254]	0.5 to 5 µM
CCOC(=O)NCCNc1nc(C)c(-c2nc3ccccc3s2)c(N[C@@H]2C[C@H](CO)[C@H]3OC(C)(C)O[C@H]32)n1 [Example 255]	< 0.5 µM
CCOC(=O)NCCNc1nc(C)c(-c2nc3ccccc3s2)c(N[C@@H]2C[C@H](CO)[C@@H](O)[C@H]2O)n1 [Example 256]	< 0.5 µM
Cc1nc(NCCNS(C)(=O)=O)nc(N[C@@H]2C[C@H](CO)[C@H]3OC(C)(C)O[C@H]32)c1-c1nc2ccccc2s1 [Example 257]	< 0.5 µM
Cc1nc(NCCNS(C)(=O)=O)nc(N[C@@H]2C[C@H](CO)[C@@H](O)[C@H]2O)c1-c1nc2ccccc2s1 [Example 258]	0.5 to 5 µM
CCOCCNc1nc(C)c(-c2nc3cc(NC)ccc3s2)c(N[C@@H]2C[C@H](CO)[C@@H](O)[C@H]2O)n1 [Example 259]	< 0.5 µM
CNc1ccc2sc(-c3c(C)nc(NCC(F)(F)F)nc3N[C@@H]3C[C@H](CO)[C@@H](O)[C@H]3O)nc2c1 [Example 260]	< 0.5 µM
